Experimental data: US7314858B2, “Retrocyclins: antiviral and antimicrobial peptides” (priority 2001, dated 2008)
Where a SMILES comes first, the peptide text is derived from it. Bridges are numbered along the chain shown (N, C = ends).

Columns and labels:
MTT cytotoxicity assay = assay type: cell-based, human; details: human, H9 cells
Method: FIG. 8. Cytotoxicity of antimicrobial peptides against H9 cells. Retrocyclin, RTD-1 and PG-1 (a porcine-derived peptide with anti-HIV-1 activity) were tested for cytotoxicity using an MTT assay for cell proliferation. Note that the EC50 of Retrocyclin and RTD-1 were >100 μg/ml, concentrations well above their antiviral concentration.
Retrocyclin is not cytotoxic. […] Retrocyclin was not hemolytic for human erythrocytes.

HIV-1 strain IIIB = assay: HIV-1 IIIB infection of H9 cells, p24 antigen ELISA; assay type: cell-based; details: H9 cells, IIIB (X4), peptide 10-20 μg/ml
Method: FIG. 1. Circular minidefensins reduce HIV-1 infection of H9 cells. HIV-I strain IIIB (MOI=10^−2) was incubated with 2.5×10^5 H9 cells in the presence or absence of 20 μg/ml RTD-1, RTD-2 or RTD-3. p24 antigen release was monitored by ELISA on days 3, 6, and 9. Assay sensitivity=10 pg/ml.
Immortalized CD4^+ H9 cells, which are permissive for infection with this strain, were maintained in RPMI supplemented with 10% heat-inactivated fetal calf serum (FCS), 10 mM HEPES, 2 mM glutamine, 100 U of penicillin/ml, and 10 μg of streptomycin/ml (R10 media). Cells (2.5×10^5/100 μl) were incubated with virus (multiplicity of infection (MOI)=10^−2) in the presence or absence of 20 μg/ml RTD-1, RTD-2 or RTD-3 for 3 hrs at 37° C./5% CO2. The cells were washed in R10 media, seeded in 48-well tissue culture plates in 1 ml R10 media, and incubated at 37° C./5% CO2 for 9 days. Aliquots of cell supernatant were removed at the specified time points and analyzed by a sensitive ELISA (DuPont NEN) that quantitates p24 antigen of HIV-1. The three circular rhesus minidefensins were similarly active, inhibiting HIV-1 by 100-1000 fold by 9 days post-inoculation (note the logarithmic scale).
Either HIV-1-permissive H9 cells were used as targets, or primary CD4^+ lymphocytes from HIV-1-seronegative donors generated from freshly purified peripheral blood mononuclear cells (PBMC) stimulated with a CD3-CD8 bispecific monoclonal antibody. After approximately 7 days, when 98% of these cells co-expressed CD3 and CD4, they were infected with HIV-1 with or without retrocyclin or other test peptide. These cells were maintained in RPMI containing 10% FCS supplemented with 2 mM glutamine, 100 U of penicillin/ml, 10 μg of streptomycin/ml, and 50 U of interleukin 2/ml (R10-50 media).
Mature retrocyclin was prepared by a three-step process.

E. coli ML-35p = assay: Two-stage radial diffusion assay; assay type: cell-based, Escherichia coli
Method: (§1) FIG. 4. Effect of salt on antibacterial activity of circular minidefensins. Human retrocyclin and monkey RTD-1 were tested against our standard lab stains: E. coli ML-35p, P. aeruginosa MR 3007, L. monocytogenes EGD, and S. aureus 930918. The bars show MIC values±SEM values that resulted from 3-6 radial diffusion assays per organism and assay condition.
(§2) The effects of NaCl on the antimicrobial activity of retrocyclin and RTD-1, from two-stage radial diffusion assays, are compared in FIG. 4.

L. monocytogenes EGD = assay: Two-stage radial diffusion assay; assay type: cell-based, Listeria monocytogenes
Method: as §1, §2

HIV-1 IIIB = assay: Activity of theta-defensins against HIV-1 IIIB (FIG. 21); assay type: cell-based
Source text: (§3) FIG. 21A-21B. Activity of theta-defensins against HIV-1 BAL; and HIV-1 IIIB.
(§4) The data shown in FIGS. 21A and 21B illustrate the activity of these retrocyclin-related peptides against two different strains of HIV-1, BAL and IIIB. […] BAL and IIIB are widely studied, laboratory adapted strains of HIV.

HIV-1 BAL = assay: Activity of theta-defensins against HIV-1 BAL (FIG. 21); assay type: cell-based
Source text: as §3, §4

HIV-1 = details: cited from earlier work

**Q.** Which EC50 (MTT cytotoxicity assay) does the source give for `CC[C@H](C)[C@@H]1NC(=O)[C@@H]2CSSC[C@H](NC(=O)[C@H](CCCNC(=N)N)NC(=O)[C@@H]3CSSC[C@H](NC1=O)C(=O)N[C@@H]([C@@H](C)O)C(=O)N[C@@H](CCCNC(=N)N)C(=O)NCC(=O)N[C@@H](Cc1ccccc1)C(=O)N3)C(=O)N[C@@H](CC(C)C)C(=O)N[C@H]1CSSC[C@H](NC(=O)[C@H](C(C)C)NC(=O)CNC(=O)[C@H](CCCNC(=N)N)NC(=O)[C@H](CCCNC(=N)N)NC1=O)C(=O)N[C@@H](CCCNC(=N)N)C(=O)N2` [RTD-1, reference compound] (cyclo(GFCRCLCRRGVCRCICTR); disulfide 3-16, 5-14, 7-12) here?
**A.** The EC50 was > 100 µg/mL.

**Q.** And the “inhibition of HIV-1 replication (p24)” value (HIV-1 strain IIIB)?
**A.** Its value is “protective to a lesser extent than retrocyclin”.

**Q.** And the “effect of salt on antimicrobial activity” value (E. coli ML-35p; hypersalinity (175 mM NaCl))?
**A.** Its value is “only modestly inhibitory”.

**Q.** What about the antimicrobial activity (E. coli ML-35p; physiological (100 mM) NaCl) of the same molecule?
**A.** The antimicrobial activity was “strong activity”.

**Q.** And the “effect of salt on antimicrobial activity” value (L. monocytogenes EGD; hypersalinity (175 mM NaCl))?
**A.** The value was “only modestly inhibitory”.

**Q.** And the antimicrobial activity (L. monocytogenes EGD; physiological (100 mM) NaCl)?
**A.** Its antimicrobial activity is “strong activity”.

**Q.** Which “potency against HIV-1 IIIB” value (HIV-1 IIIB) does the source give for “Orang-2: cyclic GVCRC ICGRG VCRCI CRR (SEQ ID NO:134) (cyclo(GVCRCICGRGVCRCICRR); disulfide (positions not given here); ring closure inferred; not fully specified (bridges))” here?
**A.** The value was “more potent than retrocyclins 1 and 2 and RC101”.

**Q.** What about the “potency against HIV-1 BAL” value (HIV-1 BAL) of the same molecule?
**A.** Its value is “more potent than retrocyclins 1 and 2 and RC101”.

**Q.** With indolicidin as the molecule, how does the “concentration reproducibly virucidal against HIV-1” value (HIV-1) read?
**A.** Its value is 333 µg/mL.
